{"source": "patent US20250283872A1", "about": "“EXPRESSION SYSTEMS FOR THE ALPHA2ALPHA5BETA2 NICOTINIC ACETYLCHOLINE RECEPTOR AND METHODS OF USE THEREOF” (Janssen Pharmaceutica NV, priority 2021, published 2025)", "key": {"α2α5β2 nAChR": {"target": "α2α5β2 nAChR (Homo sapiens, UniProt P17787+P30532+Q15822)", "sequence (Q15822 27-529)": "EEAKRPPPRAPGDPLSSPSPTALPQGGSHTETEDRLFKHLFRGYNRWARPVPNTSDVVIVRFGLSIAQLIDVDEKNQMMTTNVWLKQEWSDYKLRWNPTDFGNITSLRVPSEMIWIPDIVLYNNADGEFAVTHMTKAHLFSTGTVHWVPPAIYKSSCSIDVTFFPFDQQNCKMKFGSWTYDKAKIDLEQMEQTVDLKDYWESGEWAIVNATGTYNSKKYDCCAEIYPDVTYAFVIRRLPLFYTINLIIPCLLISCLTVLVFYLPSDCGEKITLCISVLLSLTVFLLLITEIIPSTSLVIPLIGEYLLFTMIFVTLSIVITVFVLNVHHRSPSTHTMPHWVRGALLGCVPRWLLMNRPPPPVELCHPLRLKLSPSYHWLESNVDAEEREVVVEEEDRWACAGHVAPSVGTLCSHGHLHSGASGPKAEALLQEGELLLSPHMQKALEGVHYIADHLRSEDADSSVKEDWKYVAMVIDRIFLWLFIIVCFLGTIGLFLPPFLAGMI", "sequence (P30532 23-468)": "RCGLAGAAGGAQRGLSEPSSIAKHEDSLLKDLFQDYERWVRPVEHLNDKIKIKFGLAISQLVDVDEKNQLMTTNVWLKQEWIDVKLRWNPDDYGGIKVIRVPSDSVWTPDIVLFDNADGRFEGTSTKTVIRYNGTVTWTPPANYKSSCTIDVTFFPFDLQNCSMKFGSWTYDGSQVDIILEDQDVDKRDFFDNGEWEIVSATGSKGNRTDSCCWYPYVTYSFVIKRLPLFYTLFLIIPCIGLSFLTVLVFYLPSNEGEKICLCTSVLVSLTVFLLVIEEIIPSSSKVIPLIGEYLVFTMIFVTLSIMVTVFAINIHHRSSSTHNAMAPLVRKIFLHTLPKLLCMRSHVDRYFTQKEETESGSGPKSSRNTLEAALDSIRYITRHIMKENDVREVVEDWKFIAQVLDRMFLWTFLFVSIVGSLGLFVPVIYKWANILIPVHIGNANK", "sequence (P17787 26-502)": "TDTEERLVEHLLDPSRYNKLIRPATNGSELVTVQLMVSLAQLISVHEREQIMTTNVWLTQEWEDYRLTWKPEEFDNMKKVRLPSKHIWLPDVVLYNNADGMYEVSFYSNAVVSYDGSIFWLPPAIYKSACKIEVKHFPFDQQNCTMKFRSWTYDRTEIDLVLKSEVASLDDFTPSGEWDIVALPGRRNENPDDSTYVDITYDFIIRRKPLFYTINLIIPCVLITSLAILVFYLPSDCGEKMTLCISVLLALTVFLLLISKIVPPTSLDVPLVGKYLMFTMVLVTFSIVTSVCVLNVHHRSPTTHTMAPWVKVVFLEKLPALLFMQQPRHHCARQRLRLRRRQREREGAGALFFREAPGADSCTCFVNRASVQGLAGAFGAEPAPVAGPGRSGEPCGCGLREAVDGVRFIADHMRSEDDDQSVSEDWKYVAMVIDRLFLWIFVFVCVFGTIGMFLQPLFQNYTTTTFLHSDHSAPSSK", "procedure": "(§1) Then transfer the plate to 30° C. with 5% CO2 in a humidified atmosphere for 24-48 hours."}, "α2β2 nAChR": {"target": "α2β2 nAChR (Homo sapiens, UniProt P17787+Q15822)", "sequence (Q15822 27-529)": "as the sequence (Q15822 27-529) above", "sequence (P17787 26-502)": "as the sequence (P17787 26-502) above", "details": "HEK293T cells; co-transfection with FAM163B or TMIE (plus SAT1+CHAT) versus SAT1+CHAT", "procedure": "as §1"}}}
{"smiles": "CN1CCCC1c1cccnc1", "note": "(stereo not drawn) [nicotine, Nicotine]", "values": [{"measurement": "nicotine potency (nicotine-evoked calcium flux, FIG. 2)", "setting": "α2α5β2 nAChR; HEK293T cells, co-transfection with FAM163B or TMIE (plus SAT1+CHAT) versus SAT1+CHAT", "result": "left shifted"}, {"measurement": "EC80 (nicotine-evoked α2α5β2 nAChR mediated calcium flux)", "setting": "α2α5β2 nAChR; recombinant cells, Ca5 dye, FLIPR TETRA", "result": 1000, "unit": "nM"}, {"measurement": "nicotine potency (nicotine-evoked calcium flux, FIG. 2)", "setting": "α2β2 nAChR", "result": "left shifted"}]}
